Values joined by “and” are separate entries in the source; they are usually repeats but may differ in a detail not shown here. Identical values can stand only once.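 Cultured in 96-well plates, cells were exposed to test compound for 48 hours across five concentrations. GI50 = concentration required for 50% inhibition of growth. The concentration for full growth arrest is given as TGI.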
Legend:
Test in all cases: NCI anticancer screen, dose series, 48 h
[1] = tested on: CCRF-CEM leukemia
[2] = tested on: OVCAR-4 ovarian
[3] = tested on: A498 renal
[4] = tested on: HCT-116 colon
[5] = tested on: ACHN renal
[6] = tested on: UACC-257 melanoma
[7] = tested on: HOP-62 NSCLC
[8] = tested on: HOP-92 NSCLC
[9] = tested on: SF-539 CNS
[10] = tested on: 786-0 renal

SMILES: Cn1cc(/C=C2\C(=O)Nc3cccnc32)c2ccccc21
- GI50 [1]: 16 µM
- TGI [1]: > 25 µM
- GI50 [2]: 24.8 µM
- TGI [2]: > 25 µM
- GI50 [3]: 4.73 µM
- TGI [3]: > 25 µM
- GI50 [4]: 14.7 µM
- TGI [4]: > 25 µM
- GI50 [5]: 11.5 µM
- TGI [5]: > 25 µM
- GI50 [6]: 13.9 µM
- TGI [6]: > 25 µM
- GI50 [7]: > 25 µM
- TGI [7]: > 25 µM
- GI50 [8]: 2.51 µM
- TGI [8]: 24.8 µM
- GI50 [9]: > 25 µM
- TGI [9]: > 25 µM
- GI50 [10]: > 25 µM
- TGI [10]: > 25 µM

SMILES: C[Si](C)(C)[C@@]1([Se]c2ccccc2)CC[C@@H]1C(=O)c1ccccc1
- TGI [1]: > 100 µM
- TGI [2]: > 100 µM
- TGI [3]: > 100 µM
- TGI [4]: > 100 µM
- TGI [5]: > 100 µM
- TGI [6]: > 100 µM
- TGI [7]: > 100 µM
- TGI [9]: > 100 µM
- TGI [10]: > 100 µM

SMILES: O=C1CCC(c2ccccc2)(c2ccccc2)CC1
- TGI [1]: 52 µM
- TGI [2]: > 100 µM
- TGI [3]: > 100 µM
- TGI [4]: > 100 µM
- TGI [5]: > 100 µM
- TGI [6]: > 100 µM
- TGI [7]: > 100 µM
- TGI [8]: > 100 µM
- TGI [10]: > 100 µM

SMILES: O=C1CCCC2COc3ccc(O)c1c32 (stereo unspecified)
- TGI [1]: > 100 µM
- TGI [2]: > 100 µM
- TGI [3]: > 100 µM
- TGI [5]: > 100 µM
- TGI [6]: > 100 µM
- TGI [7]: > 100 µM
- TGI [8]: > 100 µM
- TGI [9]: > 100 µM
- TGI [10]: > 100 µM

SMILES: Fc1ccc(-c2c(-c3ccncc3)n(CCN3CCOCC3)c3cccnc23)cc1
- GI50 [1]: > 25 µM
- TGI [1]: > 25 µM
- GI50 [2]: > 25 µM
- TGI [2]: > 25 µM
- GI50 [3]: > 25 µM
- TGI [3]: > 25 µM
- GI50 [4]: > 25 µM
- TGI [4]: > 25 µM
- GI50 [5]: > 25 µM
- TGI [5]: > 25 µM
- GI50 [6]: > 25 µM
- TGI [6]: > 25 µM
- GI50 [7]: > 25 µM
- TGI [7]: > 25 µM
- GI50 [8]: 2.2 µM
- TGI [8]: > 25 µM
- GI50 [9]: > 25 µM
- TGI [9]: > 25 µM
- GI50 [10]: > 25 µM
- TGI [10]: > 25 µM

SMILES: NC(=NC1C2CC3CC(C2)CC1C3)Nc1ccc(I)cc1 (stereo unspecified)
- GI50 [1]: 3.43 µM
- TGI [1]: > 100 µM
- GI50 [2]: 3.26 µM
- TGI [2]: 14 µM
- GI50 [3]: 2.47 µM
- TGI [3]: 6.77 µM
- GI50 [4]: 3.11 µM
- TGI [4]: 10.4 µM
- GI50 [5]: 2.92 µM
- TGI [5]: 9.45 µM
- GI50 [6]: 2.16 µM
- TGI [6]: 5.21 µM
- GI50 [7]: 2.46 µM
- TGI [7]: 8.38 µM
- GI50 [8]: 1.6 µM
- TGI [8]: 5.21 µM
- GI50 [9]: 4.16 µM
- TGI [9]: 15.5 µM
- GI50 [10]: 4.03 µM
- TGI [10]: 15.5 µM

SMILES: Cc1cc(Br)cc(C)c1NC(=O)C(=O)C(C(=O)c1ccc(Cl)c(Cl)c1)C1OC(=O)c2ccccc21 (stereo unspecified)
- TGI [1]: > 100 µM
- TGI [2]: > 100 µM
- TGI [3]: > 100 µM
- TGI [4]: > 100 µM
- TGI [5]: > 100 µM
- TGI [6]: > 100 µM
- TGI [7]: > 100 µM
- TGI [9]: > 100 µM
- TGI [10]: > 100 µM

SMILES: Cc1cc(I)cc(CN(C)CCCCN2CCCC2)c1O
- GI50 [1]: 31.3 µM
- TGI [1]: > 100 µM
- GI50 [2]: 41.6 µM
- TGI [2]: > 100 µM
- GI50 [3]: 13.4 µM
- TGI [3]: 30.2 µM
- GI50 [4]: 13.1 µM
- TGI [4]: 40 µM
- GI50 [5]: 36.8 µM
- TGI [5]: > 100 µM
- GI50 [6]: 16.6 µM
- TGI [6]: 32.8 µM
- GI50 [7]: 16.4 µM
- TGI [7]: 33.9 µM
- GI50 [8]: 15.3 µM
- TGI [8]: 70.2 µM
- GI50 [9]: 14.7 µM
- TGI [9]: 28.7 µM
- GI50 [10]: 15.3 µM
- TGI [10]: 31.4 µM

SMILES: CCn1cc(C2NC(=O)c3cc(F)ccc3N2)c2cccc(Cl)c21 (stereo unspecified)
- GI50 [1]: 0.172 µM
- TGI [1]: > 50.3 µM
- GI50 [2]: 2.53 µM
- TGI [2]: > 100 µM
- GI50 [3]: 0.0879 µM
- TGI [3]: 0.402 µM
- GI50 [4]: 0.177 µM
- TGI [4]: > 100 µM
- GI50 [5]: 0.606 µM
- TGI [5]: > 100 µM
- GI50 [6]: > 100 µM
- TGI [6]: > 100 µM
- GI50 [7]: 0.485 µM
- TGI [7]: > 100 µM
- GI50 [8]: > 24.4 µM
- TGI [8]: > 100 µM
- GI50 [9]: 0.177 µM
- TGI [9]: 0.683 µM
- GI50 [10]: 0.618 µM
- TGI [10]: > 50.6 µM

SMILES: O=C(O)c1c(Cl)c(Cl)c(Cl)c(Cl)c1-c1c2cc(I)c(=O)c(I)c-2oc2c(I)c(O)c(I)cc12
- GI50 [1]: 30.2 µM and 41.9 µM
- TGI [1]: 95.7 µM
- GI50 [2]: 93.1 µM and 43.9 µM
- TGI [2]: 105 µM
- GI50 [3]: 29.5 µM and 26.1 µM
- TGI [3]: 64.2 µM
- GI50 [4]: 45.4 µM and 37.2 µM
- TGI [4]: 81.5 µM
- GI50 [5]: 54.8 µM
- TGI [5]: > 200 µM
- GI50 [6]: 53.5 µM
- TGI [6]: 163 µM
- GI50 [7]: 80.7 µM and 31 µM
- TGI [7]: 87.4 µM
- GI50 [8]: 19.3 µM and 29.7 µM
- TGI [8]: 68 µM and 71.6 µM
- GI50 [9]: 32.7 µM and 34.6 µM
- TGI [9]: 89.7 µM
- GI50 [10]: 46.5 µM
- TGI [10]: 123 µM

SMILES: O=C1CCCc2c(O)ccc(O)c21
- TGI [1]: 71.7 µM
- TGI [2]: > 100 µM
- TGI [3]: > 100 µM
- TGI [4]: > 100 µM
- TGI [5]: > 100 µM
- TGI [6]: > 100 µM
- TGI [7]: > 100 µM
- TGI [9]: > 100 µM
- TGI [10]: > 100 µM

SMILES: COc1cc(C(=O)c2c(-c3ccccc3)oc3ccccc23)cc(OC)c1O
- GI50 [1]: 1.71 µM
- TGI [1]: 14.3 µM
- GI50 [2]: 5.46 µM
- TGI [2]: 24.4 µM
- GI50 [3]: 2.09 µM
- TGI [3]: 5.76 µM
- GI50 [4]: 1.04 µM
- TGI [4]: 12.5 µM
- GI50 [5]: 4.49 µM
- TGI [5]: 41.1 µM
- GI50 [6]: 16 µM
- TGI [6]: 64.3 µM
- GI50 [7]: 7.3 µM
- TGI [7]: 23.4 µM
- GI50 [8]: 0.595 µM
- TGI [8]: 12.7 µM
- GI50 [9]: 1.64 µM
- TGI [9]: 5.63 µM
- GI50 [10]: 4.15 µM
- TGI [10]: 17 µM

SMILES: Nc1ccccc1C#Cc1ccccc1C#CCCCCO
- GI50 [1]: 23.2 µM
- TGI [1]: 78.7 µM
- GI50 [2]: 34.1 µM
- TGI [2]: 70.6 µM
- GI50 [3]: 21.9 µM
- TGI [3]: 77.8 µM
- GI50 [4]: 12.9 µM
- TGI [4]: 26.6 µM
- GI50 [5]: 24.7 µM
- TGI [5]: 59 µM
- GI50 [6]: 19.7 µM
- TGI [6]: 50.9 µM
- GI50 [7]: 10.9 µM
- TGI [7]: 33.5 µM
- GI50 [8]: 28.1 µM
- TGI [8]: 80.4 µM
- GI50 [9]: 19 µM
- TGI [9]: 42.8 µM
- GI50 [10]: 16 µM
- TGI [10]: 37.7 µM

SMILES: C[C@H]1CC(=O)[C@@]2(O)C#C/C=C\C#C[C@@H]3Nc4c(cc(O)c5c4C(=O)c4ccccc4C5=O)[C@]24O[C@]314
- GI50 [1]: 0.0025 µM
- GI50 [2]: 0.351 µM
- TGI [2]: 0.648 µM and 1.92 µM
- TGI [3]: 0.217 µM
- GI50 [4]: 0.0025 µM
- TGI [4]: 0.178 µM and 0.0836 µM
- TGI [5]: 0.0252 µM
- GI50 [6]: 0.00794 µM
- TGI [6]: 0.204 µM and 0.286 µM
- GI50 [7]: 0.0025 µM
- TGI [7]: 0.00698 µM and 0.00625 µM
- TGI [8]: 0.336 µM
- GI50 [9]: < 0.001 µM
- TGI [9]: 0.0219 µM and 0.0281 µM
- GI50 [10]: 0.00435 µM
- TGI [10]: 0.106 µM and 0.262 µM
